Test results: patent US20240383909A1, “CO-CRYSTALS” (INTRA-CELLULAR THERAPIES, INC., priority 2021, published 2024)
≈ marks a conversion by molar mass, not a printed value.

Assay: Aqueous solubility of co-crystals (saturated solutions in water, liquid chromatography)
Assay type: physicochemical
Conditions: thermodynamic from solid, time point not stated, read-out: solubility for the Free Base (comparison)
Procedure: The aqueous solubility of the co-crystals is determined by creating saturated solutions containing individual co-crystals in water. The saturated solutions are shaken for 24 hours at room temperature. Samples are taken at two timepoints (2 hours and 24 hours) and are filtered and diluted (acetonitrile/water 1:1) before measurement with liquid chromatography.

solubility: 1 µg/mL (≈ 1.97 µM)
Compound: CN1C(=O)c2c(nn(Cc3ccc(-c4cccc(F)n4)cc3)c2Nc2ccccc2)N2C1=N[C@@H]1CCC[C@@H]12 [Free Base, (6aR,9aS)-5,6a,7,8,9,9a-hexahydro-5-methyl-3-(phenylamino)-2-((4-(6-fluoropyridin-2-yl)phenyl)methyl)-cyclopent[4,5]imidazo[1,2-a]pyrazolo[4,3-e]pyrimidin-4(2H)-one]
